# Measurements reported in patent US20130030009A1, “METHOD FOR THE TREATMENT AND/OR PREVENTION OF ORAL ALLERGIC SYMPTIONS OF THE LIPS DUE TO ORAL CONTACT WITH A FOOD ALLERGEN” (priority 2010, published 2013).
# Tests used:
# [1] = test system: patients afflicted with oral allergy syndrome; test: Cromolyn Sodium mouth rinse in patients afflicted with oral allergy syndrome; format: in vivo
# Description: Using the teachings of the co-pending patent application entitled “PREPARATIONS FOR TOPICAL PREVENTION AND/OR TREATMENT OF ORAL […] SYMPTOMS DUE TO ORAL CONTACT WITH FRUITS AND/OR VEGETABLES”, filed Dec. […] These patients experienced much relief of their oral allergy and throat allergy symptoms. […] Thus, it seems that sometimes mouth rinsing of Cromolyn Sodium fails to deliver sufficient Cromolyn Sodium to the mast cells of the lip.
# [2] = when swallowed may include headache, GI upset, itchiness, irritability, rash, muscle pain; cited from earlier work
structure (smiles),measurement,setting,value
O=C(O)c1cc(=O)c2c(OCC(O)COc3cccc4oc(C(=O)O)cc(=O)c34)cccc2o1 [Cromolyn Sodium],lip itchiness of internal and external lip surfaces after mouth rinse,[1],some individuals still experienced lip itchiness
same,relief of oral allergy and throat allergy symptoms,[1],much relief
same,side effects,[2],very uncommon
